From US11266643B2, “Triaryl compounds for treatment of PD-L1 diseases” (CHEMOCENTRYX, INC., priority 2019, dated 2022) come the findings set out here.

Broadly, the IC50 is the concentration that gives 50% inhibition. High values mean weaker potency, low ones greater potency.

Molecules are shown by their SMILES. Some results are limits rather than exact numbers.

The target of one assay is human PD-L1 (Homo sapiens (Human), UniProt Q9NZQ7). Description: Enzyme-Linked Immunosorbent Assay (ELISA), PD-1/PD-L1 binding. Particulars: PD-1/PD-L1 ELISA, human PD-L1 coated plates, Table 1. The method, boiled down: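 Competitive ELISA: human PD-1 […] (0.31 μg/mL) and serially diluted compounds (1:5) incubated 1 h at 37° C on wells coated with […] human PD-L1. Signal via streptavidin-HRP/TMB, stopped with 2 N H2SO4, measured as A450.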
Chain of human PD-L1 (Q9NZQ7 19-239): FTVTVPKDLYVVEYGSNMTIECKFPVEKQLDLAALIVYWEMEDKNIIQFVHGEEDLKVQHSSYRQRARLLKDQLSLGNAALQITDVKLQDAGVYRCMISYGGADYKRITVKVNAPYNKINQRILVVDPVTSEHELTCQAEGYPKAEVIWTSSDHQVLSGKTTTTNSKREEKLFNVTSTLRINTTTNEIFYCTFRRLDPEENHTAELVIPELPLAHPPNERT
`COc1cc(-c2cccc(-c3cccc(NC(=O)[C@H]4COCCN4)c3C)c2C)cc(F)c1CN` [Example 1.319] returned an IC50 of 0.01 to 1 µM. Turning to `COc1cc(-c2cccc(-c3cccc(NC(=O)c4cncn(C)c4=O)c3C)c2C)cc(F)c1CN(C)CCC(=O)O` [Example 1.268], the IC50 is less than 0.01 µM.

With `COc1cc(-c2cccc(-c3cccc(NC(=O)c4ccccn4)c3C)c2C)cc(F)c1CN1CCCC[C@@H]1C(=O)O` [Example 1.377], the IC50 lay in the range of 1 to 10 µM.

Take `COc1cc(-c2cccc(-c3cccc(NC(=O)c4ccncn4)c3C)c2C)cc(F)c1CNCCCC(=O)O` [Example 1.345]: the IC50 was less than 0.01 µM. On the same count and under the same terms, to `COc1cc(-c2cccc(-c3cccc(NC(=O)c4ccc(N)nc4)c3C)c2C)cc(F)c1CNCCO` [Example 1.390] belongs 1 to 10 µM. Same read-out and setting: as for `COc1cc(-c2cccc(-c3cccc(NC(=O)c4cnccn4)c3C)c2C)cc(F)c1CN1CC(C(=O)O)C1` [Example 1.357], the figure is less than 0.01 µM. For the compound `COc1cc(-c2cccc(-c3cccc(NC(=O)c4cncn(C)c4=O)c3C)c2C)cc(F)c1CN1CCC2(C1)NC(=O)NC2=O` (centres unmarked) [Example 1.269], the IC50 is less than 0.01 µM. The compound `COc1cc(-c2cccc(-c3cccc(NC(=O)c4ccccn4)c3C)c2C)cc(F)c1CNC(CO)CO` [Example 1.376] returned an IC50 of 0.01 to 1 µM. In the case of `COc1cc(-c2cccc(-c3cccc(Nc4nccc5nccnc45)c3C)c2C)cc(F)c1CNCC(N)=O` [Example 1.239], the IC50 is 0.01 to 1 µM. The same measure, in the same setting: to `COc1cc(-c2cccc(-c3cccc(NC(=O)c4cccn(CC(=O)O)c4=O)c3C)c2C)cc(F)c1CN` [Example 1.291] belongs 1 to 10 µM; to `COc1cc(-c2cccc(-c3cccc(NC(=O)c4cccn(C)c4=O)c3C)c2C)cc(F)c1CNCCC(=O)O` [Example 1.282], less than 0.01 µM; to `COc1cc(-c2cccc(-c3cccc(NC(=O)c4c[nH]c(=O)n(C)c4=O)c3C)c2C)cc(F)c1CNCC(N)=O` [Example 1.252], 0.01 to 1 µM.

With `COc1cc(-c2cccc(-c3cccc(NC(=O)c4cc(C(=O)O)[nH]n4)c3C)c2C)cc(F)c1CN` [Example 1.304], the IC50 lay in the range of 1 to 10 µM. Same read-out and setting: to `COc1cc(-c2cccc(-c3cccc(Nc4nccc5nccnc45)c3C)c2C)cc(F)c1CN1CC(O)C1` [Example 1.231] belongs less than 0.01 µM; to `COc1cc(-c2cccc(-c3cccc(NC(=O)c4cncn(C)c4=O)c3C)c2C)cc(F)c1CNCC(=O)O` [Example 1.267], less than 0.01 µM. The same measure, in the same setting: as for `COc1cc(-c2cccc(-c3cccc(NC(=O)c4ccccn4)c3C)c2C)cc(F)c1CN1CCOC[C@H]1CO` [Example 1.373], the figure is 0.01 to 1 µM. Same read-out and setting: as for `COc1cc(-c2cccc(-c3cccc(NC(=O)c4ccccn4)c3C)c2C)cc(F)c1CN1CCCC[C@H]1C(=O)O` [Example 1.380], the figure is 0.01 to 1 µM. The compound `COc1cc(-c2cccc(-c3cccc(Nc4nccc5c4C(=O)N(C)CC5)c3C)c2C)cc(F)c1CN1CC(C(=O)O)C1` [Example 1.265] came in with an IC50 of less than 0.01 µM. On the same count and under the same terms, to `COc1cc(-c2cccc(-c3cccc(NC(=O)c4c[nH]c(=O)n(C)c4=O)c3C)c2C)cc(F)c1CN1CC2(C1)NC(=O)NC2=O` [Example 1.242] belongs 0.01 to 1 µM.

Staying with this assay, now noted: human PD-1/PD-L1 ELISA, plates coated with human PD-L1.
In turn, `COc1cc(-c2cccc(-c3cccc(NC(=O)c4nn(C)c(=O)n(C)c4=O)c3C)c2C)cc(F)c1CNC[C@H]1CCC(=O)N1` [Example 1.068] yielded an IC50 of less than 0.01 µM. Still for that read-out and setting: as for `COc1cc(-c2cccc(-c3cccc(NC(=O)c4cn(C)c(=O)n(C)c4=O)c3C)c2C)cc(F)c1CN(C)C[C@@H]1CCC(=O)N1` [Example 1.175], the figure is less than 0.01 µM; as for `COc1cc(-c2cccc(-c3cccc(NC(=O)c4cn(C)c(=O)n(C)c4=O)c3C)c2C)cc(F)c1CN[C@H]1CCOC1` [Example 1.039], less than 0.01 µM; as for `COc1cc(-c2cccc(-c3cccc(Nc4nccc5nccnc45)c3C)c2C)cc(F)c1CN[C@@H]1CCOC[C@@H]1O` [Example 1.040], less than 0.01 µM.

Take `COc1cc(-c2cccc(-c3cccc(Nc4nccc5nccnc45)c3C)c2F)cc(F)c1CNCC(C)(C)C(N)=O` [Example 1.029]: the IC50 was in the range of 0.01 to 1 µM. Still for that read-out and setting: to `COc1cc(-c2cccc(-c3cccc(NC(=O)c4cn(C)c(=O)n(C)c4=O)c3Cl)c2Cl)cc(F)c1CN[C@H]1CCC(=O)NC1` [Example 1.007] belongs less than 0.01 µM; to `COc1cc(-c2cccc(-c3cccc(NC(=O)c4cn(C)c(=O)n(C)c4=O)c3C)c2C)cc(F)c1CNCc1c[nH]c(=O)[nH]c1=O` [Example 1.149], less than 0.01 µM. Same read-out and setting: to `COc1cc(-c2cccc(-c3cccc(Nc4cncc5nccnc45)c3C)c2C)cc(F)c1CN[C@@H]1CNC(=O)C1` [Example 1.043] belongs less than 0.01 µM. The same measure, in the same setting: to `COc1cc(-c2cccc(-c3cccc(NC(=O)c4ccc(CNCCO)cn4)c3C)c2C)cc(F)c1CNCCCC(=O)O` [Example 1.401] belongs less than 0.01 µM; to `COc1cc(-c2cccc(-c3cccc(NC(=O)c4cncn(C)c4=O)c3C)c2C)cc(F)c1CN1CCNC(=O)C1` [Example 1.182], 1 to 10 µM; to `COc1cc(-c2cccc(-c3cccc(NC(=O)c4cccn(C)c4=O)c3C)c2C)cc(F)c1CN(C)[C@@H]1CNC(=O)C1` [Example 1.074], 0.01 to 1 µM. The compound `COc1cc(-c2cccc(-c3cccc(NC(=O)c4cncn(C)c4=O)c3C)c2C)cc(F)c1CN(C)CCO` [Example 1.176] gave an IC50 of less than 0.01 µM. Still for that read-out and setting: as for `COc1cc(-c2cccc(-c3cccc(NC(=O)c4nn(C)c(=O)n(C)c4=O)c3C)c2C)cc(F)c1CNCCN1CCCC1=O` [Example 1.092], the figure is less than 0.01 µM; as for `COc1cc(-c2cccc(-c3cccc(NC(=O)c4c[nH]c(=O)n(C)c4=O)c3C)c2C)cc(F)c1CNCCC1CNC(=O)C1` (centres unmarked) [Example 1.086], less than 0.01 µM; as for `COc1cc(-c2cccc(-c3cccc(NC(=O)c4cn(C)c(=O)n(C)c4=O)c3C)c2C)cc(F)c1CN[C@@H]1CCOC[C@H]1O` [Example 1.012], less than 0.01 µM. On the same count and under the same terms, to `COc1cc(-c2cccc(-c3cccc(NC(=O)c4cn(C)c(=O)n(C)c4=O)c3Cl)c2C)cc(F)c1CNC[C@@H]1CCC(=O)N1` [Example 1.030] belongs less than 0.01 µM. Same read-out and setting: to `COc1cc(-c2cccc(-c3cccc(NC(=O)c4cn(C)c(=O)n(C)c4=O)c3F)c2C)cc(F)c1CN[C@@H]1CNC(=O)C1` [Example 1.044] belongs 0.01 to 1 µM. In turn, `COc1cc(-c2cccc(-c3cccc(NC(=O)c4c[nH]c(=O)n(C)c4=O)c3C)c2C)cc(F)c1CNCC1CCNC(=O)C1` (centres unmarked) [Example 1.071] displayed an IC50 of less than 0.01 µM. On the same count and under the same terms, as for `COc1cc(-c2cccc(-c3cccc(NC(=O)c4cn(C)c(=O)n(C)c4=O)c3C)c2C)cc(F)c1CN[C@H]1CCC[C@@H]1O` [Example 1.129], the figure is less than 0.01 µM; as for `COc1cc(-c2cccc(-c3cccc(NC(=O)c4cn(C)c(=O)n(C)c4=O)c3C)c2C)cc(F)c1CN[C@H]1COCC[C@@H]1O` [Example 1.001], less than 0.01 µM; as for `COc1cc(-c2cccc(-c3cccc(NC(=O)c4c[nH]c(=O)n(C)c4=O)c3C)c2C)cc(F)c1CNCc1ccn[nH]1` [Example 1.134], less than 0.01 µM.

The compound `COc1cc(-c2cccc(-c3cccc(NC(=O)c4ccc(CN[C@@](C)(CO)C(=O)O)cn4)c3C)c2C)cc(F)c1CN[C@@](C)(CO)C(=O)O` [Example 1.402] yielded an IC50 of less than 0.01 µM. The same measure, in the same setting: as for `COc1cc(-c2cccc(-c3cccc(NC(=O)c4c[nH]c(=O)n(C)c4=O)c3C)c2C)cc(F)c1CN[C@@H]1CCC(=O)NC1` [Example 1.094], the figure is less than 0.01 µM; as for `COc1cc(-c2cccc(-c3cccc(NC(=O)c4c[nH]c(=O)n(C)c4=O)c3C)c2C)cc(F)c1CNCCC1CCC(=O)N1` (centres unmarked) [Example 1.141], less than 0.01 µM; as for `COc1cc(-c2cccc(-c3cccc(Nc4nccc5nccnc45)c3C)c2Cl)cc(F)c1CN[C@@H]1CNC(=O)C1` [Example 1.024], less than 0.01 µM. Same read-out and setting: as for `COc1cc(-c2cccc(-c3cccc(NC(=O)c4cn(C)c(=O)n(C)c4=O)c3C)c2C)cc(F)c1CN[C@@H]1CCC[C@H]1O` [Example 1.137], the figure is less than 0.01 µM.

The assay is the same for the next values; noted with them: plate-coated human PD-L1, biotinylated Human PD-1, absorbance at 450 nm.
Turning to `COc1cc(-c2cccc(-c3cccc(NC(=O)c4cn(C)c(=O)n(C)c4=O)c3C)c2Cl)cc(F)c1CN[C@H]1CCOC[C@H]1O` [Example 2.104], the IC50 is less than 0.01 µM. Same read-out and setting: as for `COc1cc(-c2cccc(-c3cccc(NC(=O)c4cn(C)c(=O)n(C)c4=O)c3Cl)c2Cl)cc(F)c1CN[C@H]1COC[C@H]1O` [Example 2.074], the figure is less than 0.01 µM; as for `COc1cc(-c2cccc(-c3cccc(NC(=O)c4cn(C)c(=O)n(C)c4=O)c3C)c2Cl)cc(F)c1CN(C)[C@@H]1CCOC[C@@H]1O` [Example 2.062], less than 0.01 µM. Turning to `COc1cc(-c2cccc(-c3cccc(NC(=O)c4cn(C)c(=O)n(C)c4=O)c3C)c2C)cc(F)c1CN[C@H]1CCOC[C@@H]1O` [Example 2.096], the IC50 was less than 0.01 µM. On the same count and under the same terms, as for `COc1cc(-c2cccc(-c3cccc(NC(=O)c4cn(C)c(=O)n(C)c4=O)c3Cl)c2C)cc(F)c1CN[C@H]1CCOC[C@H]1O` [Example 2.103], the figure is less than 0.01 µM. The same measure, in the same setting: as for `COc1cc(-c2cccc(-c3cccc(Nc4nccc5nccnc45)c3Cl)c2Cl)cc(F)c1CN1CC(C)(C(=O)O)C1` [Example 2.109], the figure is less than 0.01 µM; as for `COc1cc(-c2cccc(-c3cccc(NC(=O)c4cn(C)c(=O)n(C)c4=O)c3C)c2Cl)cc(F)c1CNC(C)C` [Example 2.064], less than 0.01 µM; as for `COc1cc(-c2cccc(-c3cccc(NC(=O)c4cn(C)c(=O)n(C)c4=O)c3C)c2Cl)cc(F)c1CN[C@@H]1CCC(=O)NC1` [Example 2.101], less than 0.01 µM.

For `COc1cc(-c2cccc(-c3cccc(NC(=O)c4cncn(C)c4=O)c3C)c2Cl)cc(F)c1CN[C@@H]1CCOC[C@@H]1O` [Example 2.042], the IC50 was less than 0.01 µM. The same measure, in the same setting: to `COc1cc(-c2cccc(-c3cccc(NC(=O)c4cn(C)c(=O)n(C)c4=O)c3C)c2Cl)cc(F)c1CN[C@@H]1CCCOC1` [Example 2.067] belongs less than 0.01 µM; to `COc1cc(-c2cccc(-c3cccc(NC(=O)c4cn(C)c(=O)n(C)c4=O)c3C)c2Cl)cc(F)c1CN1CC(C)(C(=O)O)C1` [Example 2.017], less than 0.01 µM.
